Laboratory results taken from patent US11291684B2, “Treatment of glaucoma” (TX MEDIC AB, priority 2017, dated 2022).

Assays:
[1] = Body weight and activity of rats in glaucoma model; type: in vivo, Sprague Dawley rats; conditions: rat; day 28; treated animals gaining less weight
Description: (§1) Measured End-Points • IOP twice weekly throughout study from day 0 to day 28; • Immunohistochemistry for counting RGC that are immunoreactive for brain-specific homeobox/POU domain protein 3A (Brn3a) at day 28 (RGC survival); • Immunohistochemistry for laminin and fibronectin to evaluate scarring in the trabecular meshwork at day 28 in Groups 1 and 2; • Anterior segment and OCT imaging at day 28 to examine the angle and the thickness of the retinal nerve fiber layer comprising RGC axons; and • Body weight at day 28.

[2] = test system: retinal nerve fiber layer (RNFL); experiment: OCT analysis of retinal nerve fiber layer in TGF-β-induced glaucoma model; type: in vivo, Sprague Dawley rats; conditions: rat TGF-β glaucoma model; day 28
Procedure: Glaucoma was induced in adult male Sprague Dawley rats by repeat twice weekly intracameral (IC) injections of transforming growth factor-β (TGF-β) to increase intraocular pressure (IOP). Sustained increases in IOP (after two weeks) leads to death of retinal ganglion cells (30-40%). Dextran sulfate (Tikomed AB, Sweden, WO 2016/076780) was administered at 15 mg/kg by daily subcutaneous injection from […] to assess RGC protection compared to controls.
as §1
Optical coherence tomography allows in vivo measuring of retinal thickness with RNFL being a surrogate measure of RGC density. OCT retinal nerve fiber layer analysis was performed at day 28 on all rats while under inhalation anesthesia using a Spectralis HRA3 confocal scanning laser ophthalmoscope (Heidelberg Engineering). […] In-built software was used to segment the images and quantify the RNFL thickness.

Schwann cells = experiment: Gene expression (microarray) in cultured Schwann cells; type: cell-based, Human
Procedure: n=8×25 cm^2 culture flasks were set up. Two flasks were harvested on the day of treatment (24 hours after seeding). This represents the Day0 time point. From the remaining flasks, three flasks were treated with Control Medium and three were treated with Culture Medium (CM) containing dextran sulfate to give a final concentration of 0.01 mg/ml. Cells from the treated flasks were collected after 48 hours. Therefore the collected data represent (a) untreated cells (Day0 Controls and Day2 Controls) and (b) cells treated with dextran sulfate for 48 hours (Day2 dextran sulfate treated).
25 cm^2 flasks were coated by adding 2 ml per flask of a solution of 50 μg/ml poly-d-lysine in Hank's balanced salt solution (HBSS) and incubating overnight at 37° C. in the dark. Flasks were washed with cell culture water and air-dried for 30 min in the dark. Flasks were coated by adding 1 ml per flask of a solution of 25 μg/ml laminin in phosphate-buffered saline (PBS) and incubating for 2 hour at 37° C. in the dark. The laminin flasks were washed with PBS three times before plating cells.
Schwann cells growth medium was prepared by adding 10% of fetal bovine serum (FBS) to high-glucose DMEM and pre-warmed to 37° C. Cells were thawed in a 37° C. water bath for no longer than 2 min.
Cells from 12 vials were each gently transferred to a tube containing 10 ml of high-glucose DMEM medium and centrifuged at 400 relative centrifugal field (RCF) for 10 min. Pellet was resuspended in culture medium. The cells from the 12 vials were mixed and distributed equally into the previously coated 25 cm^2 flasks (n=8). Cells were incubated at 37° C. with 5% CO2. Cells were allowed to settle for 24 hours before dextran sulfate treatment.
Dextran sulfate (Tikomed AB, Sweden, WO 2016/076780) was provided at a stock concentration of 20 mg/ml and was kept in a temperature monitored refrigerator at 4° C. A fresh 100× dextran sulfate stock (1.0 mg/ml) was prepared in sterile DMEM-F12. The concentrated drug stock was sterile filtered and added to the respective culture media (19.6 ml CM and 0.4 ml dextran sulfate stock solution). The Control was made using 19.6 ml CM and 0.4 ml of DMEM-F12. Dextran sulfate and CM were added to the respective flasks (5 ml each) to reach the 0.01 mg/ml concentration of dextran sulfate in each dish with a total of 10 ml CM each.
CM was aspirated into a clean and labelled 15 ml Falcon tube. The flasks (without culture medium) were placed into the −80° C. freezer for 30 minutes. The CM in the Falcon tubes were spun at 3000×g for 5 minutes. Supernatant was removed and the small pellet was re-suspended in 2.5 ml Trizol:Water (4:1) solution at room temperature (RT, ˜22° C.).
The frozen flasks were removed one-by one from the freezer and the Trizol-Water from the appropriate tubes was moved to the flask. Flasks were left at RT for 5 minutes before the content was aspirated back into the 15 ml Falcon tube (after washing the bottom of the flask with the solution thoroughly). The flasks were inspected under the microscope to ensure full removal of cells. The collected lysates in the 15 ml Falcon tubes were placed into the −80° C. freezer.
Two aliquots of 1 ml lysate was removed from each sample and 200 μl of chloroform was added to each (0.2 ml of chloroform per 1 ml of TRIzol Reagent used during the cell lysis step) and the tube was shaken vigorously. Samples were stored at RT for 2-3 minutes and subsequently centrifuged at 12,000×g for 15 minutes at 4° C.
The RNA was precipitated from the aqueous phase by adding an equal amount of 100% ethanol. The precipitated RNA was fixed onto a Spin Cartridge, washed twice and dried. The RNA was eluted in 50 μl warm RNase-Free Water. The amount and quality of the purified RNA was measured by Nanodrop. The RNA was stored at −80° C. before transfer to Source Bioscience for Array analysis.
The expression data were downloaded into separate files for each cell line. […]

dextran sulfate
body weight difference vs saline treated animals [1]: small but non-significant difference | RNFL (OCT) compared to saline treatment [2]: preserved | effect on cell adhesion and movement in Schwann cells (Schwann cells; 0.01 mg/ml, 48 hours): promoted cell detachment and movement | differentially expressed genes (Schwann cells; D0 control vs D2 dextran sulfate treated, 0.01 mg/ml, 48 hours): 1244 genes | differentially expressed genes (Schwann cells; D2 control vs D2 dextran sulfate treated, 0.01 mg/ml, 48 hours): 700 genes | increase in decorin expression, fold change (Schwann cells; Schwann cells, 0.01 mg/ml, 48 hours): 1.242 | genes: abolished nutrient effect (Schwann cells; no effect): 21 | genes: total (Schwann cells; no effect): 21 | genes: abolished nutrient effect (Schwann cells; significant downregulation): 1 | genes: enhanced response to nutrients (Schwann cells; significant downregulation): 122 | genes: new effect induced by dextran sulfate (Schwann cells; significant downregulation): 352 | genes: not different from control (Schwann cells; significant downregulation): 42 | genes: total (Schwann cells; significant downregulation): 517 | genes: abolished nutrient effect (Schwann cells; significant upregulation): 13 | genes: enhanced response to nutrients (Schwann cells; significant upregulation): 441 | genes: new effect induced by dextran sulfate (Schwann cells; significant upregulation): 74 | genes: not different from control (Schwann cells; significant upregulation): 373 | genes: total (Schwann cells; significant upregulation): 901 | genes: abolished nutrient effect (Schwann cells; total): 35 | genes: enhanced response to nutrients (Schwann cells; total): 563 | genes: new effect induced by dextran sulfate (Schwann cells; total): 426 | genes: not different from control (Schwann cells; total): 415 | genes: total (Schwann cells; total): 1439
